Test results published in patent publication US11572366B2, “Heterocyclic compounds as immunomodulators” (Incyte Corporation, priority 2015, dated 2023).

Target: PD-1/PD-L1 protein/protein interaction (Homo sapiens (Human), UniProt Q9NZQ7)
Assay: PD-1/PD-L1 Homogeneous Time-Resolved Fluorescence (HTRF) binding assay
Details: recombinant human PD-L1 (19-238) His-tag 10 nM, human PD-1 (25-167) Fc tag 3 nM, 25° C., PBS pH 7.4
Procedure: Example A. PD-1/PD-L Homogeneous Time-Resolved Fluorescence (HTRF) Binding Assay
The assays were conducted in a standard black 384-well polystyrene plate with a final volume of 20 μL. Inhibitors were first serially diluted in DMSO and then added to the plate wells before the addition of other reaction components. The final concentration of DMSO in the assay was 1%. The assays were carried out at 25° C. in the PBS buffer (pH 7.4) with 0.05% Tween-20 and 0.1% BSA. Recombinant human PD-L1 protein (19-238) with a His-tag at the C-terminus was purchased from AcroBiosystems (PD1-H5229). Recombinant human PD-1 protein (25-167) with Fc tag at the C-terminus was also purchased from AcroBiosystems (PD1-H5257). PD-L1 and PD-1 proteins were diluted in the assay buffer and 10 μL was added to the plate well. Plates were centrifuged and proteins were preincubated with inhibitors for 40 minutes. The incubation was followed by the addition of 10 μL of HTRF detection buffer supplemented with Europium cryptate-labeled anti-human IgG (PerkinElmer-AD0212) specific for Fe and anti-His antibody conjugated to SureLight®-Allophycocyanin (APC, PerkinElmer-AD0059H). After centrifugation, the plate was incubated at 25° C. for 60 min. before reading on a PHERAstar FS plate reader (665 nm/620 nm ratio). Final concentrations in the assay were—3 nM PD1, 10 nM PD-L1, 1 nM europium anti-human IgG and 20 nM anti-His-Allophycocyanin.IC50 determination was performed by fitting the curve of percent control activity versus the log of the inhibitor concentration using the GraphPad Prism 5.0 software.

Sequence of PD-1/PD-L1 protein/protein interaction (Q9NZQ7 19-238): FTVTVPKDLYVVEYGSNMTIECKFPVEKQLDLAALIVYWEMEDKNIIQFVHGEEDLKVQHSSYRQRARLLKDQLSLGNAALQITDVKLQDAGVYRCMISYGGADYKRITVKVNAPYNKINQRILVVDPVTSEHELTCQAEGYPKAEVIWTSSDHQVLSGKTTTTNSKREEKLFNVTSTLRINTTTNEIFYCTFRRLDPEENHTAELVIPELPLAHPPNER

## Cc1c(-c2ccc3c(c2)OCCO3)ccnc1-c1nc2cc(CN3CCCC[C@H]3C(=O)O)c(OCC#N)cc2o1 [Example 35, (2S)-1-({6-(cyanomethoxy)-2-[4-(2,3-dihydro-1,4-benzodioxin-6-yl)-3-methylpyridin-2-yl]-1,3-benzoxazol-5-yl}methyl)piperidine-2-carboxylic Acid]
  IC50: 10 to 100 nM

## Cc1c(-c2ccc3c(c2)OCCO3)cccc1-c1nc2cc(CN3CCCC[C@H]3C(=O)O)c(OCC#N)cc2o1 [Example 36, (2S)-1-({6-(cyanomethoxy)-2-[3-(2,3-dihydro-1,4-benzodioxin-6-yl)-2-methylphenyl]-1,3-benzoxazol-5-yl}methyl)piperidine-2-carboxylic Acid]
  IC50: ≤ 10 nM

## N#CCOc1cc2oc(-c3cccc(-c4ccc5c(c4)OCCO5)c3C#N)nc2cc1CN1CCCC[C@H]1C(=O)O [Example 37, (2S)-1-{[2-[2-cyano-3-(2,3-dihydro-1,4-benzodioxin-6-yl)phenyl]-6-(cyanomethoxy)-1,3-benzoxazol-5-yl]methyl}piperidine-2-carboxylic Acid]
  IC50: 10 to 100 nM

## Cc1c(-c2ccccc2)cccc1-c1nc2ccc(CN3CCCC[C@H]3C(=O)O)cc2o1 [Example 38, (2S)-1-{[2-(2-methylbiphenyl-3-yl)-1,3-benzoxazol-6-yl]methyl}piperidine-2-carboxylic Acid]
  IC50: 10 to 100 nM

## Cc1c(-c2nc3cc(CNCCO)c(OCC#N)cc3o2)cccc1-c1ccccc1F [Example 39, [(2-(2′-fluoro-2-methylbiphenyl-3-yl)-5-{[(2-hydroxyethyl)amino]methyl}-1,3-benzoxazol-6-yl)oxy]acetonitrile]
  IC50: ≤ 10 nM

## Cc1c(C2=CCCCC2)cccc1-c1nc2cc(CNCCO)c(OCC#N)cc2o1 [Example 40, [(2-(3-cyclohex-1-en-1-yl-2-methylphenyl)-5-{[(2-hydroxyethyl)amino]methyl}-1,3-benzoxazol-6-yl)oxy]acetonitrile]
  IC50: 10 to 100 nM
